In patent US9937151B2, “Carbapenem antibacterials with gram-negative activity” (priority 2010, dated 2018):
Converted amounts (≈) assume the structure as drawn.

System: G(−) bacterial strains
Assay: Dilution antimicrobial susceptibility tests (MIC, NCCLS agar dilution / broth dilution)
Assay type: cell-based, Gram-negative organisms
Conditions: unit assumed
Description: The MIC (minimum inhibitory concentration) was determined by the NCCLS (National Committee for Clinical Laboratory Standards) methods 2000. Methods for dilution antimicrobial susceptibility testing for bacteria that growth aerobically (M7-A5, vol. 20, No. 2). The agar dilution method for determining antimicrobial susceptibility was carried out using Mueller-Hinton agar. A final inoculum of 10^4 CFU/spot was applied with an inoculation device. Broth dilution tests were performed with 5×10^5 CFU/well in 96 well plates. The susceptibilities of streptococci were determined by Mueller-Hinton agar supplemented with 5% sheep blood. All assays were run with the indicated control strains, available from the ATCC (American Type Culture Collection, Rockville, Md.).
Abbreviations used in Table 1 are defined as follows: Cf-R: Ceftazidime Resistance, Ci-R: Ciprofloxacin Resistance, Gen-R: Gentamycin Resistance, Imp-R: Imipenem Resistance, Mp-R: Meropenem Resistance, Ofx-R: Ofloxacin Resistance, B+: β-lactamase Production, AmpC: AmpC-lactamase Hyper production, CBPase: Carbapenemase Production.

[1] = strain #1 Acinetobacter calcoaceticus
[2] = strain #2 Acinetobacter baumannii, Cf-R, Ci-R
[3] = strain #3 Acinetobacter baumannii, Cf-R, Ci-R, Mp-I
[4] = strain #4 Acinetobacter baumannii, Cf-R, Imp-I, CBPase
[5] = strain #7 Enterobacter aerogenes
[6] = strain #8 Enterobacter cloacae, Cf-R, B+
[7] = strain #9 Enterobacter cloacae, Cf-R
[8] = strain #10 Escherichia coli, Ci-R
[9] = strain #11 Escherichia coli, Ci-R, AmpC
[10] = strain #15 Klebsiella pneumoniae
[11] = strain #16 Moraxella catarrhalis
[12] = strain #21 Providencia rettgeri
[13] = strain #22 Salmonella typhimurium
[14] = strain #25 Shigella dysenteriae
[15] = strain #28 Stenotrophomonas maltophilia
[16] = strain #29 Pseudomonas aeruginosa
[17] = strain #30 Pseudomonas aeruginosa
[18] = strain #31 Pseudomonas aeruginosa, Ofx-R
[19] = strain #32 Pseudomonas aeruginosa, Cf-R
[20] = strain #33 Pseudomonas aeruginosa, Ci-R
[21] = strain #34 Pseudomonas aeruginosa, Gen-R
[22] = strain #35 Pseudomonas aeruginosa, Ip-R
[23] = strain #36 Pseudomonas aeruginosa, Cf-R, Ci-R, Mp-R

Row | SMILES | MIC [1] | MIC [2] | MIC [3] | MIC [4] | MIC (strain #5 Citrobacter diversus) | MIC (strain #6 Citrobacter freundii) | MIC [5] | MIC [6] | MIC [7] | MIC [8] | MIC [9] | MIC (strain #12 Escherichia coli) | MIC (strain #13 Escherichia coli) | MIC (strain #14 Klebsiella oxytoca) | MIC [10] | MIC [11] | MIC (strain #17 Morganella Morganii) | MIC (strain #18 Morganella Morganii) | MIC (strain #19 Proteus vulgaris) | MIC (strain #20 Proteus mirabilis) | also measured
1 | C[C@@H](O)C1C(=O)N2C(C(=O)O)=C(CN3CC(C(N)=O)C3)[C@H](C)C12 (stereo partly drawn) [Compound 49] | 0.25 µg/mL (≈ 0.773 µM) | 0.5 µg/mL (≈ 1.55 µM) | 2 µg/mL (≈ 6.19 µM) | 1 µg/mL (≈ 3.09 µM) | 0.063 µg/mL (≈ 0.195 µM) | 0.13 µg/mL (≈ 0.402 µM) | 0.25 µg/mL (≈ 0.773 µM) | 0.063 µg/mL (≈ 0.195 µM) | 0.13 µg/mL (≈ 0.402 µM) | 0.063 µg/mL (≈ 0.195 µM) | 0.063 µg/mL (≈ 0.195 µM) | 0.063 µg/mL (≈ 0.195 µM) | 0.13 µg/mL (≈ 0.402 µM) | 0.25 µg/mL (≈ 0.773 µM) | 0.25 µg/mL (≈ 0.773 µM) | ≤ 0.008 µg/mL | 2 µg/mL (≈ 6.19 µM) | 1 µg/mL (≈ 3.09 µM) | 0.5 µg/mL (≈ 1.55 µM) | 0.13 µg/mL (≈ 0.402 µM) | MIC [12]: 0.5 µg/mL (≈ 1.55 µM); MIC [13]: 0.13 µg/mL (≈ 0.402 µM); MIC (strain #23 Serratia marcescens): 0.25 µg/mL (≈ 0.773 µM); MIC (strain #24 Serratia marcescens): 0.25 µg/mL (≈ 0.773 µM); MIC [14]: 0.13 µg/mL (≈ 0.402 µM); MIC (strain #26 Shigella sonnei): 0.13 µg/mL (≈ 0.402 µM); MIC (strain #27 Shigella flexneri): 0.063 µg/mL (≈ 0.195 µM); MIC [15]: 0.13 µg/mL (≈ 0.402 µM); MIC [16]: 4 µg/mL (≈ 12.4 µM); MIC [17]: 4 µg/mL (≈ 12.4 µM); MIC [18]: 2 µg/mL (≈ 6.19 µM); MIC [19]: 4 µg/mL (≈ 12.4 µM); MIC [20]: 4 µg/mL (≈ 12.4 µM); MIC [21]: 4 µg/mL (≈ 12.4 µM); MIC [22]: 8 µg/mL (≈ 24.7 µM); MIC [23]: 32 µg/mL (≈ 99 µM)
2 | C[C@@H](O)C1C(=O)N2C(C(=O)O)=C(CN3CC(NS(N)(=O)=O)C3)[C@H](C)C12 (stereo partly drawn) [Compound 58] | 0.5 µg/mL (≈ 1.34 µM) | 2 µg/mL (≈ 5.34 µM) | 4 µg/mL (≈ 10.7 µM) | 2 µg/mL (≈ 5.34 µM) | 0.13 µg/mL (≈ 0.347 µM) | 0.25 µg/mL (≈ 0.668 µM) | 0.5 µg/mL (≈ 1.34 µM) | 0.13 µg/mL (≈ 0.347 µM) | 0.25 µg/mL (≈ 0.668 µM) | 0.13 µg/mL (≈ 0.347 µM) | 0.13 µg/mL (≈ 0.347 µM) | 0.13 µg/mL (≈ 0.347 µM) | 0.25 µg/mL (≈ 0.668 µM) | 0.25 µg/mL (≈ 0.668 µM) | 0.25 µg/mL (≈ 0.668 µM) | ≤ 0.008 µg/mL | 1 µg/mL (≈ 2.67 µM) | 1 µg/mL (≈ 2.67 µM) | 0.5 µg/mL (≈ 1.34 µM) | 0.25 µg/mL (≈ 0.668 µM) | MIC [12]: 0.5 µg/mL (≈ 1.34 µM); MIC [13]: 0.25 µg/mL (≈ 0.668 µM); MIC (strain #23 Serratia marcescens): 0.5 µg/mL (≈ 1.34 µM); MIC (strain #24 Serratia marcescens): 0.5 µg/mL (≈ 1.34 µM); MIC [14]: 0.25 µg/mL (≈ 0.668 µM); MIC (strain #26 Shigella sonnei): 0.25 µg/mL (≈ 0.668 µM); MIC (strain #27 Shigella flexneri): 0.13 µg/mL (≈ 0.347 µM); MIC [15]: 0.25 µg/mL (≈ 0.668 µM); MIC [16]: 8 µg/mL (≈ 21.4 µM); MIC [17]: 8 µg/mL (≈ 21.4 µM); MIC [18]: 4 µg/mL (≈ 10.7 µM); MIC [19]: 8 µg/mL (≈ 21.4 µM); MIC [20]: 8 µg/mL (≈ 21.4 µM); MIC [21]: 8 µg/mL (≈ 21.4 µM); MIC [22]: 16 µg/mL (≈ 42.7 µM); MIC [23]: 32 µg/mL (≈ 85.5 µM)
3 | C[C@@H](O)C1C(=O)N2C(C(=O)O)=C(CN3CC[C@H](NC(=N)N)C3)[C@H](C)C12 (stereo partly drawn) [Compound 64] | 0.13 µg/mL (≈ 0.37 µM) | 1 µg/mL (≈ 2.85 µM) | 1 µg/mL (≈ 2.85 µM) | 0.5 µg/mL (≈ 1.42 µM) | 0.5 µg/mL (≈ 1.42 µM) | 0.5 µg/mL (≈ 1.42 µM) | 1 µg/mL (≈ 2.85 µM) | 0.5 µg/mL (≈ 1.42 µM) | 0.5 µg/mL (≈ 1.42 µM) | 0.25 µg/mL (≈ 0.711 µM) | 0.25 µg/mL (≈ 0.711 µM) | 0.5 µg/mL (≈ 1.42 µM) | 0.5 µg/mL (≈ 1.42 µM) | 1 µg/mL (≈ 2.85 µM) | 1 µg/mL (≈ 2.85 µM) | ≤ 0.008 µg/mL | 4 µg/mL (≈ 11.4 µM) | 2 µg/mL (≈ 5.69 µM) | 1 µg/mL (≈ 2.85 µM) | 0.5 µg/mL (≈ 1.42 µM) | MIC [12]: 2 µg/mL (≈ 5.69 µM); MIC [13]: 0.5 µg/mL (≈ 1.42 µM); MIC (strain #23 Serratia marcescens): 1 µg/mL (≈ 2.85 µM); MIC (strain #24 Serratia marcescens): 2 µg/mL (≈ 5.69 µM); MIC [14]: 0.5 µg/mL (≈ 1.42 µM); MIC (strain #26 Shigella sonnei): 0.5 µg/mL (≈ 1.42 µM); MIC (strain #27 Shigella flexneri): 0.25 µg/mL (≈ 0.711 µM); MIC [15]: 0.25 µg/mL (≈ 0.711 µM); MIC [16]: 1 µg/mL (≈ 2.85 µM); MIC [17]: 1 µg/mL (≈ 2.85 µM); MIC [18]: 0.25 µg/mL (≈ 0.711 µM); MIC [19]: 2 µg/mL (≈ 5.69 µM); MIC [20]: 2 µg/mL (≈ 5.69 µM); MIC [21]: 2 µg/mL (≈ 5.69 µM); MIC [22]: 2 µg/mL (≈ 5.69 µM); MIC [23]: 16 µg/mL (≈ 45.5 µM)
4 | C[C@@H](O)C1C(=O)N2C(C(=O)[O-])=C(C[N+]3(C)CC[C@H](NC(=N)N)C3)[C@H](C)C12 (stereo partly drawn) [Compound 67] | 2 µg/mL (≈ 5.47 µM) | 8 µg/mL (≈ 21.9 µM) | 8 µg/mL (≈ 21.9 µM) | 4 µg/mL (≈ 10.9 µM) | 0.13 µg/mL (≈ 0.356 µM) | 0.25 µg/mL (≈ 0.684 µM) | 4 µg/mL (≈ 10.9 µM) | 0.13 µg/mL (≈ 0.356 µM) | 0.25 µg/mL (≈ 0.684 µM) | 0.13 µg/mL (≈ 0.356 µM) | 0.13 µg/mL (≈ 0.356 µM) | 0.13 µg/mL (≈ 0.356 µM) | 0.25 µg/mL (≈ 0.684 µM) | 0.25 µg/mL (≈ 0.684 µM) | 4 µg/mL (≈ 10.9 µM) | 0.016 µg/mL (≈ 0.0438 µM) | 16 µg/mL (≈ 43.8 µM) | 16 µg/mL (≈ 43.8 µM) | 16 µg/mL (≈ 43.8 µM) | 0.25 µg/mL (≈ 0.684 µM) | MIC [12]: 1 µg/mL (≈ 2.74 µM); MIC [13]: 0.25 µg/mL (≈ 0.684 µM); MIC (strain #23 Serratia marcescens): 0.5 µg/mL (≈ 1.37 µM); MIC (strain #24 Serratia marcescens): 0.5 µg/mL (≈ 1.37 µM); MIC [14]: 0.25 µg/mL (≈ 0.684 µM); MIC (strain #26 Shigella sonnei): 0.25 µg/mL (≈ 0.684 µM); MIC (strain #27 Shigella flexneri): 0.13 µg/mL (≈ 0.356 µM); MIC [15]: 2 µg/mL (≈ 5.47 µM); MIC [16]: 1 µg/mL (≈ 2.74 µM); MIC [17]: 2 µg/mL (≈ 5.47 µM); MIC [18]: 2 µg/mL (≈ 5.47 µM); MIC [19]: 2 µg/mL (≈ 5.47 µM); MIC [20]: 2 µg/mL (≈ 5.47 µM); MIC [21]: 2 µg/mL (≈ 5.47 µM); MIC [22]: 4 µg/mL (≈ 10.9 µM); MIC [23]: 16 µg/mL (≈ 43.8 µM)
5 | C[C@@H](O)C1C(=O)N2C(C(=O)O)=C(CN3CC[C@H](NS(N)(=O)=O)C3)[C@H](C)C12 (stereo partly drawn) [Compound 72] | 1 µg/mL (≈ 2.57 µM) | 2 µg/mL (≈ 5.15 µM) | 4 µg/mL (≈ 10.3 µM) | 4 µg/mL (≈ 10.3 µM) | 0.5 µg/mL (≈ 1.29 µM) | 0.5 µg/mL (≈ 1.29 µM) | 1 µg/mL (≈ 2.57 µM) | 0.25 µg/mL (≈ 0.644 µM) | 1 µg/mL (≈ 2.57 µM) | 0.25 µg/mL (≈ 0.644 µM) | 0.25 µg/mL (≈ 0.644 µM) | 0.25 µg/mL (≈ 0.644 µM) | 0.5 µg/mL (≈ 1.29 µM) | 1 µg/mL (≈ 2.57 µM) | 0.5 µg/mL (≈ 1.29 µM) | 0.016 µg/mL (≈ 0.0412 µM) | 4 µg/mL (≈ 10.3 µM) | 4 µg/mL (≈ 10.3 µM) | 2 µg/mL (≈ 5.15 µM) | 0.5 µg/mL (≈ 1.29 µM) | MIC [12]: 2 µg/mL (≈ 5.15 µM); MIC [13]: 0.5 µg/mL (≈ 1.29 µM); MIC (strain #23 Serratia marcescens): 1 µg/mL (≈ 2.57 µM); MIC (strain #24 Serratia marcescens): 1 µg/mL (≈ 2.57 µM); MIC [14]: 0.5 µg/mL (≈ 1.29 µM); MIC (strain #26 Shigella sonnei): 0.5 µg/mL (≈ 1.29 µM); MIC (strain #27 Shigella flexneri): 0.25 µg/mL (≈ 0.644 µM); MIC [15]: 0.5 µg/mL (≈ 1.29 µM); MIC [16]: 8 µg/mL (≈ 20.6 µM); MIC [17]: 8 µg/mL (≈ 20.6 µM); MIC [18]: 2 µg/mL (≈ 5.15 µM); MIC [19]: 4 µg/mL (≈ 10.3 µM); MIC [20]: 8 µg/mL (≈ 20.6 µM); MIC [21]: 8 µg/mL (≈ 20.6 µM); MIC [22]: 8 µg/mL (≈ 20.6 µM); MIC [23]: 32 µg/mL (≈ 82.4 µM)
